From patent publication US8574834B2, “Method for predicting the response to a therapy” (Index Pharmaceuticals AB, priority 2007, dated 2013) come the findings set out here.

The subject of the test is Tsp1 gene. Put plainly: Tsp1 gene expression in PBMC after 48 hrs stimulation, real-time PCR. It counts as cell-based, human. As to conditions: 10^-6 M Dex, normalised to basal expression. From the text:
FIG. 2 depicts the average value of expression level of Tsp1 gene in PBMC in response to 48 hrs stimulation with IDX0150 alone, Dex alone, or IDX0150 and Dex combination as quantified by real-time PCR. The experimental conditions and data handling were as described in FIG. 1 and Example 1.
FIG. 5 depicts the average value of expression level of Tsp1 gene in PBMC in response to 48 hrs stimulation with IDX0150 alone, Dex alone, or IDX0150 and Dex combination as quantified by real-time PCR. The experimental conditions and data handling were as described in FIG. 4 and Example 1.
Peripheral blood mononuclear cells (PMBC) were isolated from blood samples of seven steroid resistant asthma or ulcerative colitis patients and ten healthy volunteers by density gradient centrifugation using Ficoll-Paque Plus (Pharmacia Biotech), washed three times in buffered saline solution (PBS), and resuspended in complete RPMI 1640 (Sigma/Gibco) containing 15% heat inactivated fetal bovine serum (FCS) (Gibco, Life Technologies), 100 U/ml penicillin, 100 μg/ml streptomycin (Life Technologies), 2 mM L-glutamine (Sigma), gentamycin 25 ug/ml (Sigma) and 5 mM Hepes (Gibco, Life Technologies). Cells were counted using 0.4% Trypan blue solution (Sigma Aldrich). On average the yield of PBMC was in range of 60-120×10^6 cells per donor sample. […]

In the case of `C[C@@H]1C[C@H]2[C@@H]3CCC4=CC(=O)C=C[C@]4(C)[C@@]3(F)[C@@H](O)C[C@]2(C)[C@@]1(O)C(=O)CO` [dexamethasone], the “induction of Tsp1” value is given as 3-5 fold.
